We go through nine compounds from patent US5936097A, “4,9-ethano-benzo(F)isoindole derivatives as farnesyl transferase inhibitors” (Rhone-Poulenc Rorer, S.A., priority 1995, dated 1999).

The first experiment has as its target T1, human farnesyl transferase (Homo sapiens, UniProt P49354+P49356).
T1 construct: human farnesyl transferase purified from THP1 cell cultures; endogenous in cells; host or cells: THP1 cell cultures (enzyme purified from the cells)
Put plainly: inhibition of farnesyl transferase ((3H) farnesyl transfer from (3H) FPP to p21 H-ras). Format: biochemical.
Conditions: not given
How it is done:
Farnesyl transferase activity is determined by the amount of (^3 H) farnesyl transferred from (^3 H) farnesylpyrophosphate [(^3 H) FPP] to the p21 H-ras protein. The standard reaction mixture is composed, for a final volume of […], of 50 mM Tris-HCl, 5 mM MgCl2, 5 mM dithiotreitol, 0.2% octyl b-D-glucopyranoside, 200 picomol p21 H-ras, 4.5 picomol (^3 H) FPP (activity 61000 dpm/picomol).
Reaction is initiated by adding approximately 5 ng of human farnesyl transferase purified from THP1 cell cultures. After incubation for 20 minutes at 37° C. in a microtitration plate containing 96 1-cm^3 wells per plate (Titer Plate®, Beckman), the reaction is stopped by adding 0.4 cm^3 of 0.1% SDS in methanol at 0° C. The mixture is then treated with 0.4 cm^3 of 30% trichloroacetic® acid (TCA) in methanol. The plates are left in ice for 1 hour. The precipitated contents are then retained on Filtermat®, Pharmacia), glass® fibre membranes with the filtration unit (Combi Cell Harvester®, Skatron), and rinsed with 6% trichloroacetic acid in distilled water. The membranes are dried in a microwave oven, then impregnated with scintillation medium by melting of Meltilex® (Pharmacia) under hot air, and lastly counted in cpm in a b-Plate counter® (LKB). Each test is repeated 3 times.
The unit of activity is defined as 1 picomole of (^3 H) FPP transferred to p21 H-ras in 20 minutes.
The percentage inhibition values are obtained by comparison of the tests with and without inhibitor after deduction of blanks, the IC50 values being measured on the basis of the inhibitions obtained with 9 different concentrations using Enzfitter® or Grafit® software.
`O=C(Cc1ccccc1F)N1C[C@@H]2[C@]3(c4ccccc4)CC[C@@H](c4ccccc43)[C@]2(C(=O)O)C1` (relative stereo) [Example 63, (3aRS,4SR,9SR,9aRS)-4,9-Ethano-2-(2-fluorophenyl)acetyl-9-phenyl-2,3,3a,4,9,9a-hexahydro-1H-benzo[f]isoindole-3a-carboxylic acid] registered a concentration for half-maximal inhibition (IC50) of 7 µM.

As for `COc1ccccc1CC(=O)N1C[C@H]2[C@@]3(c4ccccc4)CC[C@H](c4ccccc43)[C@@]2(C(=O)O)C1` [Example 47, 4,9-ethano-2-[(2-methoxyphenyl)acetyl]-9-phenyl-2,3,3a(S),4(R),9(R),9a(S)-hexahydro-1H-benzo[f]isoindole-3a-carboxylic acid], the IC50 stood at 0.14 µM.

The experiment is the same for the next values; noted with them: human farnesyl transferase purified from THP1 cell cultures; p21 H-ras substrate; 20 minutes at 37° C.; 9 concentrations; read-out: in vitro inhibitory activity IC50.
In the case of `C=C(C(=O)N1C[C@H]2[C@@]3(c4ccccc4)CC[C@H](c4ccccc43)[C@@]2(C(=O)NCc2ccccn2)C1)c1ccccc1OC` [Example 93, (3aS,4R,9R,9aS)-N-[(2-pyridyl)-methyl]-4,9-ethano-2-[(2-methoxyphenyl)prop-2-en-1-oyl]-9-phenyl-2,3,3a,4,9,9a-hexahydro-1H-benzo[f]isoindole-3a-carboxamide], the half-maximal inhibitory concentration (IC50) was 0.45 µM.

For `CCOC(=O)CC(=O)N[C@]12CN(C(=O)Cc3ccccc3OC)C[C@H]1[C@@]1(c3ccccc3)CC[C@@H]2c2ccccc21` (relative stereo) [Example 15, (3aRS, 4SR, 9SR, 9aRS)-4,9-ethano-3a-ethoxycarbonylacetylamino-2-(2-methoxyphenyl)acetyl-9-phenyl-2,3,3a,4,9,9a-hexahydro-1H-benzo[f]isoindole], the IC50 stood at 9 µM.

On to `C=C(C(=O)N1C[C@H]2[C@@]3(c4ccccc4)CC[C@H](c4ccccc43)[C@@]2(C(=O)N[C@H](CO)c2ccccc2)C1)c1ccccc1OC` [Example 85, (3aS,4R,9R,9aS)-N-[1-(S)-1-phenyl-2-hydroxyethyl]-4,9-ethano-2[-(2-methoxyphenyl)prop-2-en-1-oyl]-9-phenyl-2,3,3a,4,9,9a-hexahydro-1H-benzo[f]isoindole-3a-carboxamide], for which the IC50 is 0.26 µM.

Consider `CNCCNC(=O)[C@]12CN(C(=O)Cc3ccccc3OC)C[C@H]1[C@@]1(c3ccccc3)CC[C@@H]2c2ccccc21` (relative stereo) [Example 5, (3aRS, 4SR, 9SR, 9aRS)-N-(2-methylaminoethyl)-4,9-ethano-2-(2-methoxyphenyl)acetyl-9-phenyl-2,3,3a,4,9,9a-hexahydro-1H-benzo[f]isoindole-3a-carboxamide], for which the IC50 turned out to be 7 µM.

On to `COc1ccccc1CC(=O)N1C[C@H]2[C@@]3(c4ccccc4)CC[C@H](c4ccccc43)[C@@]2(C[n+]2ccccc2)C1` (relative stereo) [Example 18, N-[(3aRS, 4SR, 9SR, 9aRS)-4,9-ethano-2-(2-methoxyphenyl)acetyl-9-phenyl-2,3,3a,4,9,9a-hexahydro-1H-benzo[f]isoindolyl-3a-methyl]pyridinium trifluoromethanesulphonate], for which the IC50 is 10 µM.

On to `COc1ccccc1C1(C(=O)N2C[C@@H]3[C@]4(c5ccccc5)CC[C@@H](c5ccccc54)[C@]3(C(=O)O)C2)CC1` (racemic) [Example 41, (3aRS,4SR,9SR,9aRS)-4,9-ethano-2-[1-(2-methoxyphenyl)-cyclopropan-1-oyl]-9-phenyl-2,3,3a,4,9,9a-hexa-hydro-1H-benzo[f]isoindole-3a-carboxylic acid], for which the half-inhibitory concentration (IC50) is 1.1 µM.

For `COc1ccccc1C(C(=O)N1C[C@@H]2[C@]3(c4ccccc4)CC[C@@H](c4ccccc43)[C@]2(C(=O)O)C1)=C(C)C` (racemic) [Example 79, (3aRS,4SR,9SR,9aRS)-4,9-ethano-2-[2-(2-methoxyphenyl)-3-methyl-2-butenoyl]-9-phenyl-2,3,3a,4,9,9a-hexahydro-1H-benzo[f]isoindole-3a-carboxylic acid], the concentration for half-maximal inhibition (IC50) is 5.05 µM.
